Experimental data: patent US8883798B2, “Pyrimidine compounds inhibiting the formation of nitric oxide and prostaglandin E2, method of production thereof and use thereof” (Ustav Organicke Chemie a Biochemie Akademie Ved CR, V.V.I., priority 2011, dated 2014)

Columns and labels:
[1] = tested on: Salmonella typhimurium TA 98 and TA 100, Escherichia coli WP2 uvrA; conditions: all strains, all tested concentrations, with and without metabolic activation
Procedure: With compound 28, its possible mutagenicity (genotoxicity) was assessed using the standard bacterial reverse mutation test. According to Council Regulation (ES) No. 440/2008, stipulating the test methods according to the European Parliament and Council regulation (ES), the method used was B.13/14, Mutagenicity—Reverse Mutation Test Using Bacteria, which is described in the same way also in the OECD Test Guideline No. 471.
[…] The experiments were conducted without using metabolic activation and after activation with supernatant S9 from […] livers and with mixtures of cofactors (NADP and glucoso-6-phosphate) to determine the mutagenicity of the metabolic products of the compound tested. Supernatant S9 was prepared according to the literature [Mutat. Res. 113, 173-215, 1983].
The principle of the test is to detect possible revertants created by reverse mutation, which would be induced in the bacterial culture by the tested compound. Specially constructed bacterial strains are used, carrying mutations in the place for his (trp), which are not capable of forming colonies on the minimum plates without histidine or tryptophan. […] Mutagenic potential is given by the growing number of revertants in the influenced groups in comparison with a negative control, and/or in dependence on the growing number of revertants on the dose of the tested compound.
Bacterial testers, types Salmonella typhimurium TA 98 (CCM 3811) and Escherichia coli WP2 uvrA (CCM 4751), were acquired from the Czech Collection of Microorganisms of Masaryk University, Brno and the strain Salmonella typhimurium TA100 (CIP 103796, lot No. 1008) from the Biological Resource Center, Institut Pasteur in Paris (CRBIP).

[2] = tested on: peritoneal cells of mice; experiment: Cell viability of mouse peritoneal cells (WST-1 kit); format: cell-based; conditions: Table 3A, substance 50 μmol·l^−1, 24 h
In short: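 C57BL/6 mouse peritoneal cells (1×10^6/mL) cultured 24 h with compounds at 50 μmol·l^−1. Viability read with WST-1 tetrazolium salt and expressed as percent of untreated control cells (100%).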

[3] = tested on: production of prostaglandin E2 (PGE2); experiment: Production of prostaglandin E2 (PGE2) in cultures of mouse peritoneal cells stimulated with LPS (ELISA kit); format: cell-based, mice; conditions: Table 3A, substance 50 μmol·l^−1, 6 h
In short: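 C57BL/6 mouse peritoneal cells (3×10^6/mL) stimulated with LPS (10 ng/mL). PGE2 measured by ELISA.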

[4] = tested on: acute experimental colitis in mice; experiment: Acute experimental colitis induced in mice by dextran sulphate sodium; format: in vivo, mice BALB/c; conditions: for Therapeutical effect compared with 6-TG: acute colitis, approximately 10 mg/kg; for Course of induced acute experimental colitis: approximately 10 mg/kg by stomach probe for seven days; for Protection from severe forms of acute experimental colitis: daily oral doses of 2.5 mg/kg or 10 mg/kg
Procedure: The compounds tested were dissolved in 0.5% methylcellulose (MC, Bio-test s.r.o., Konárovice, Czech Republic; Lot: 050510BT) to acquire a final concentration of 2 mg/ml (ca 10 mg/kg). To achieve homogeneity of the suspensions, the substances in MC were disintegrated by ultrasound (sonicated; 20 s, λ=0.1 μm). Fresh suspensions were prepared every day.
The female mice of strain BALB/c at 13 weeks old were acquired from the breeding of the Institute of Physiology of the ASCR, v.v.i. Colitis was induced in them by administering a 3% solution (weight/volume) of sodium dextran sulphate (DSS, mol. weight 36-50 kDa; MP Biomedicals, Inc.) in drinking water for a period of seven days [Gastroenterology 98, 694-7, 1990]. Beginning on Day 1 of DSS administration, also a dose of the tested compound, dissolved in 100 μl MC (only a dose of methylcellulose in the case of the control animals), was administered for seven days by stomach probe.
The severity of the colitis was assessed on the last day of the experiment by scoring the clinical activity, histological parameters and measuring the length of the intestine.
The entire intestine was removed post mortem, without tightening it was placed on a ruler and measured. Shortening of the intestine is an indirect marker of infection (the shorter the intestine, the more serious the infection).
The points of the clinical activity are the sum of the individual assessments from 0 to 4 and were calculated using the following parameters: reduction of body weight (none=0 points, reduction by 1 to 5%=1 point, by 5-10%=2 points, by 10-20%=3 points, by 20%=4 points), consistency of the feces (solid=0 points; not solid, but not sticking to the anus=2 points; liquid, sticking to the anus=4 points) and bleeding (none=0 points, positive Guajak reaction=2 body, strong bleeding=4 points). This point assessment was totaled and divided by three to acquire the overall index of the activity of the disease, which was in a range from 0.0 (a healthy individual) to 4.0 (maximum activity of colitis) as described by Cooper et al. [Lab. Invest. 69, 238-49, 1993].
The descending colon was fixed in a buffered solution of 4% formaldehyde and poured into paraffin for the histological assessment. The sections were stained in hematoxylin/eosin. For every sample, four cross cuts were tested, which had been separated from one another by sections of a length of […]. The histological assessment was made for every cut by two pathologists in blind order, which provided an assessment combining the level of the infiltration of leukocytes into the layer of the lamia propria and into the submucosa along with the extent of the damage of the mucous membrane (see Table 1). The overall assessment is the average of the evaluation of the four sections, which was in a range from 0 (no signs of colitis) to 3 (severe colitis).
The differences in the intestinal length, DAI (disease activity index) and histological assessment of multiple groups were compared with the control group (MC/DSS) using a one-way analysis of the differences with a Dunnett test of multiple comparison. The differences were considered as statistically significant at P<0.05.
Compounds 28 and 51 were suspended in 0.5% methylcellulose (MC, Bio-test s.r.o., Konárovice, Czech Republic, Lot: 050510BT) to a concentration of 2 mg/ml (approximately 10 mg/kg). Sterile 0.5% MC was used as a placebo and a dose of 40 mg/each administration of 6-thioguanine (6TG) in 0.5% MC as a positive control. The administered suspensions were prepared freshly […].

SMILES | Mutagenicity (reverse mutation) [1] | Cell viability in % of the controls [2] | Production of prostaglandins in % of the controls [3] | Therapeutical effect compared with 6-TG [4] | Course of induced acute experimental colitis [4] | Protection from severe forms of acute experimental colitis [4]
CCCCc1c(Cl)nc(NC=O)nc1Cl [Substance 51] | non-mutagenous | 92.15 ± 9.90 % of the controls | 5.22 ± 2.66 % of the controls | minimally equal with the effect of 6-TG | statistically significant reduction of the course of the induced (severe form) experimental colitis | protect mice from the severe forms of acute experimental colitis
CCCCc1c(Cl)nc(N)nc1Cl [Substance 28] | non-mutagenous | 100.42 ± 5.77 % of the controls | 13.14 ± 0.13 % of the controls | minimally equal with the effect of 6-TG | statistically significant reduction of the course of the induced (severe form) experimental colitis | protect mice from the severe forms of acute experimental colitis
